Source: PMC10902181 (Journal of neurochemistry, 2023)
pIC50: −log10 of the molar value. Where two headings read alike, the source gives them in different places. Marks after values point to notes of the source that are not given here.

What was measured:
[1] = biological target: GluN2B-V618G-containing NMDARs (Homo sapiens, UniProt Q05586+Q13224, V618G); experiment: TEVC current recordings from Xenopus oocytes, channel blocker inhibition; type: cell-based; conditions: for % inhibition: 2B-V618G, 100 μM blocker, −40 mV; for pIC50: IC50, 2B-V618G, holding −40 mV
[2] = biological target: GluN2B-N616K-containing NMDARs (Homo sapiens, UniProt Q05586+Q13224, N616K); experiment: as above; type: cell-based; conditions: for % inhibition: 2B-N616K, 100 μM blocker, −40 mV; for pIC50: IC50, 2B-N616K, holding −40 mV
[3] = biological target: GluN2B-W607C-containing NMDARs (Homo sapiens, UniProt Q05586+Q13224, W607C); experiment: as above; type: cell-based; conditions: for % inhibition: 2B-W607C, 100 μM blocker, −40 mV; for pIC50: IC50, 2B-W607C, holding −40 mV
WT GluN1/GluN2A = WT GluN1/GluN2A (Homo sapiens, UniProt Q05586+Q12879); experiment: as above; type: cell-based; conditions: for pIC50: IC50, WT GluN1/WT 2A, holding −40 mV; for % inhibition: WT GluN1/WT 2A, 100 μM blocker, −40 mV
GluN1-G620R/GluN2A = GluN1-G620R/GluN2A (Homo sapiens, UniProt Q05586+Q12879, G620R); experiment: as above; type: cell-based; conditions: for % inhibition: 1-G620R/2A, 100 μM blocker, −40 mV; for pIC50: IC50, 1-G620R/2A, holding −40 mV
[4] = biological target: GluN2B-V620M-containing NMDARs (Homo sapiens, UniProt Q05586+Q13224, V620M); experiment: as above; type: cell-based; conditions: for % inhibition: 2B-V620M, 100 μM blocker, −40 mV; for pIC50: IC50, 2B-V620M, holding −40 mV
[5] = biological target: GluN2A-N615K-containing NMDARs (Homo sapiens, UniProt Q05586+Q12879, N615K); experiment: as above; type: cell-based; conditions: for % inhibition: 2A-N615K, 100 μM blocker, −40 mV; for pIC50: IC50, 2A-N615K, holding −40 mV
[6] = biological target: GluN2A-N614S-containing NMDARs (Homo sapiens, UniProt Q05586+Q12879, N614S); experiment: as above; type: cell-based; conditions: for % inhibition: 2A-N614S, 100 μM blocker, −40 mV; for pIC50: IC50, 2A-N614S, holding −40 mV
[7] = biological target: GluN2B-G611V-containing NMDARs (Homo sapiens, UniProt Q05586+Q13224, G611V); experiment: as above; type: cell-based; conditions: for % inhibition: 2B-G611V, 100 μM blocker, −40 mV; for pIC50: IC50, 2B-G611V, holding −40 mV
WT GluN1/GluN2B = WT GluN1/GluN2B (Homo sapiens, UniProt Q05586+Q13224); experiment: as above; type: cell-based; conditions: for pIC50: IC50, WT GluN1/WT 2B, holding −40 mV; for % inhibition: WT GluN1/WT 2B, 100 μM blocker, −40 mV
GluN1/GluN2B-N615I = GluN1/GluN2B-N615I (Homo sapiens, UniProt Q05586+Q13224, N615I); experiment: as above; type: cell-based; conditions: for % inhibition: 2B-N615I, 100 μM blocker, −40 mV; for pIC50: IC50, 2B-N615I, holding −40 mV
GluN1/GluN2A-L611Q [8] = biological target: T1, GluN1/GluN2A-L611Q (Homo sapiens, UniProt Q05586+Q12879, L611Q); experiment: as above; type: cell-based; conditions: for % inhibition: 2A-L611Q, 100 μM blocker, −40 mV; for pIC50: IC50, 2A-L611Q, holding −40 mV
GluN1/GluN2B-N615K = GluN1/GluN2B-N615K (Homo sapiens, UniProt Q05586+Q13224, N615K); experiment: as above; type: cell-based; conditions: for % inhibition: 100 μM blocker, −40 mV
GluN1/GluN2A-L611Q [9] = biological target: T1, GluN1/GluN2A-L611Q; experiment: Current-voltage curves; conditions: 2A-L611Q

SMILES: CNC1(c2ccccc2Cl)CCCCC1=O (stereo not shown) [ketamine]
- % inhibition ([1]; w/ 1 mM Mg^2+): 81 ± 2.1% (8)
- % inhibition ([1]; w/o Mg^2+): 77 ± 3.0% (8)^¥
- reduced potency (less potent) vs WT ([1]; GluN2B-V618G, absence of Mg^2+): ~ 3 fold
- pIC50 ([1]; w/ 1 mM Mg^2+): 4.62
- pIC50 ([1]; w/o Mg^2+): 4.74
- % inhibition ([2]; w/ 1 mM Mg^2+): 93 ± 1.3% (13)^¥
- % inhibition ([2]; w/o Mg^2+): 91 ± 2.7% (8)
- enhanced potency in comparison to WT NMDARs ([2]; GluN2B-N616K, absence of Mg^2+): 1.8 fold
- pIC50 ([2]; w/ 1 mM Mg^2+): 5.60
- pIC50 ([2]; w/o Mg^2+): 5.64
- % inhibition ([3]; w/ 1 mM Mg^2+): 89 ± 2.8% (9)
- % inhibition ([3]; w/o Mg^2+): 80 ± 3.6% (12)^¥
- reduced potency (less potent) vs WT ([3]; GluN2B-W607C, absence of Mg^2+): ~ 3 fold
- pIC50 ([3]; w/ 1 mM Mg^2+): 4.96
- pIC50 ([3]; w/o Mg^2+): 4.80
- pIC50 (WT GluN1/GluN2A; w/ 1 mM Mg^2+): 4.77
- pIC50 (WT GluN1/GluN2A; w/o Mg^2+): 5.26
- % inhibition (WT GluN1/GluN2A; w/ 1 mM Mg^2+): 79 ± 2.4% (24)
- % inhibition (WT GluN1/GluN2A; w/o Mg^2+): 92 ± 1.1% (25)
- % inhibition (GluN1-G620R/GluN2A; w/ 1 mM Mg^2+): 97 ± 0.6 (7)^¥ %
- % inhibition (GluN1-G620R/GluN2A; w/o Mg^2+): 95 ± 1.8 (12) %
- increased potency in 1 mM Mg^2+ compared to the same variant in the absence of Mg^2+ (GluN1-G620R/GluN2A; GluN1-G620R): 2.5 fold
- enhanced potency in comparison to WT NMDARs (GluN1-G620R/GluN2A; GluN1-G620R, absence of Mg^2+): 2.2 fold
- pIC50 (GluN1-G620R/GluN2A; w/ 1 mM Mg^2+): 6.00
- pIC50 (GluN1-G620R/GluN2A; w/o Mg^2+): 5.60
- % inhibition ([4]; w/ 1 mM Mg^2+): 91 ± 2.8% (8)
- % inhibition ([4]; w/o Mg^2+): 93 ± 1.0% (10)
- reduced potency in 1 mM Mg^2+ vs absence of Mg^2+ ([4]; GluN2B-V620M): 2.1 fold
- pIC50 ([4]; w/ 1 mM Mg^2+): 5.15
- pIC50 ([4]; w/o Mg^2+): 5.47
- % inhibition ([5]; w/ 1 mM Mg^2+): 92 ± 3.3% (7)^¥
- % inhibition ([5]; w/o Mg^2+): 93 ± 1.5% (18)
- pIC50 ([5]; w/ 1 mM Mg^2+): 5.80
- pIC50 ([5]; w/o Mg^2+): 5.37
- increased potency in 1 mM Mg^2+ compared to the same variant in the absence of Mg^2+ ([5]; printed GluN2A-N616K): 2.7 fold
- % inhibition ([6]; w/ 1 mM Mg^2+): 77 ± 4.1% (9)
- % inhibition ([6]; w/o Mg^2+): 78 ± 3.0% (12)^¥
- reduced potency (less potent) vs WT ([6]; GluN2A-N614S, absence of Mg^2+): ~ 3 fold
- pIC50 ([6]; w/ 1 mM Mg^2+): 4.51
- pIC50 ([6]; w/o Mg^2+): 4.54
- % inhibition ([7]; w/ 1 mM Mg^2+): 88 ± 1.6% (16)
- % inhibition ([7]; w/o Mg^2+): 92 ± 2.6% (7)
- reduced potency in 1 mM Mg^2+ vs absence of Mg^2+ ([7]; GluN2B-G611V): 2.6 fold
- pIC50 ([7]; w/ 1 mM Mg^2+): 5.10
- pIC50 ([7]; w/o Mg^2+): 5.51
- pIC50 (WT GluN1/GluN2B; w/ 1 mM Mg^2+): 4.85
- pIC50 (WT GluN1/GluN2B; w/o Mg^2+): 5.38
- % inhibition (WT GluN1/GluN2B; w/ 1 mM Mg^2+): 86 ± 1.0% (12)
- % inhibition (WT GluN1/GluN2B; w/o Mg^2+): 95 ± 1.0% (13)
- % inhibition (GluN1/GluN2B-N615I; w/ 1 mM Mg^2+): 94 ± 1.8% (8)^¥
- % inhibition (GluN1/GluN2B-N615I; w/o Mg^2+): 89 ± 1.9 (10) %
- enhanced potency in comparison to WT NMDARs (GluN1/GluN2B-N615I; GluN2B-N615I, absence of Mg^2+): 8.1 fold
- pIC50 (GluN1/GluN2B-N615I; w/ 1 mM Mg^2+): 6.12
- pIC50 (GluN1/GluN2B-N615I; w/o Mg^2+): 6.29
- % inhibition (GluN1/GluN2A-L611Q [8]; w/ 1 mM Mg^2+): 93 ± 2.1% (10) ^*^¥
- % inhibition (GluN1/GluN2A-L611Q [8]; w/o Mg^2+): 87 ± 1.5% (17)
- increased potency in 1 mM Mg^2+ compared to the same variant in the absence of Mg^2+ (GluN1/GluN2A-L611Q [8]; GluN2A-L611Q): 1.8 fold
- pIC50 (GluN1/GluN2A-L611Q [8]; w/ 1 mM Mg^2+): 5.40
- pIC50 (GluN1/GluN2A-L611Q [8]; w/o Mg^2+): 5.14
- pIC50 (GluN1/GluN2B-N615K): < 4.00
- % inhibition (GluN1/GluN2B-N615K; 2B-N615K, w/ 1 mM Mg^2+): 6.5 ± 1.5% (16) ^*^¥
- % inhibition (GluN1/GluN2B-N615K; 2B-N615K, w/o Mg^2+): 22 ± 3.8 (15)^¥ %
- pIC50 (GluN1/GluN2B-N615K; 2B-N615K, w/ 1 mM Mg^2+, holding −40 mV): < 4.00
- reduced potency compared to the WT receptors (GluN1/GluN2B-N615K; GluN2B-N615K, presence of 1 mM Mg^2+): over 5.9 fold
- z δ (apparent, combined block) (GluN1/GluN2A-L611Q [9]; 1 mM Mg^2+ + 0.3 μM ketamine): 1.14
- z δ (apparent, combined block) (GluN1/GluN2A-L611Q [9]; 1 mM Mg^2+ + 1.0 μM ketamine): 1.02
- z δ (apparent, combined block) (GluN1/GluN2A-L611Q [9]; 1 mM Mg^2+ + 3.0 μM ketamine): 1.01
- z δ (apparent, combined block) (GluN1/GluN2A-L611Q [9]; 1 mM Mg^2+ + 10 μM ketamine): 0.84
- z δ (apparent, combined block) (GluN1/GluN2A-L611Q [9]; 1 mM Mg^2+ + 30 μM ketamine, zδ was fixed to 0.80 for this condition): 0.80 ^*
- z δ (apparent, combined block) (GluN1/GluN2A-L611Q [9]; 1 mM Mg^2+ + 100 μM ketamine): 0.80
